One assay relates to human-type OT7T022. Nature of the assay: Binding inhibiting activity using human-type OT7T022-expressing CHO cell membrane fraction and 125I-labeled Y-RFRP-3. The settings on record: human-type OT7T022-expressing CHO cell membrane fraction 1 µg; 125I-labeled Y-RFRP-3 100 pM; room temperature 1.5 hours; read-out: IC50 value (binding inhibiting rate). How it is done: Assessment of binding inhibiting activity of test compound using human-type OT7T022-expressing CHO cell
(1) Preparation of iodine-labeled entity of human-type RFRP-3 (Y-RFRP-3)
A part thereof was 1/100 diluted, radioactivity was measured with a γ-counter, and the remaining authentic product was distributed, which was stored at -30°C.
(2) Assessment of binding inhibiting activity
To a 96-well microplate were added 1 µg of a membrane fraction, a compound and Y-RFRP-3 labeled with ^125I, which had been diluted with a reaction buffer (50 mM Tris-HCl, 5 mM EDTA, 0.1% BSA, 0.5 mM PMSF, 20 µg/ml leupeptin, 0.1 µg/ml pepstatin A, 4 µg/ml E-64, 10 mM MgCl2, pH 7.5), to 100pM to react them at room temperature for 1.5 hours. For measuring non-specific binding, non-labeled Y-RFRP-3 was further added to […]. Then, a membrane fraction was transferred to a unifilter GF/C (Perkin Elmer) by filtering the reaction solution using a cell harvester (Perkin Elmer), and this was washed with a cooled 50 mM Tris buffer (pH 7.5) five times. The filter was dried, Microsinti (Packard) was added to the filter, and radioactivity was measured with Topcount (Packard).
A binding inhibiting rate (IC50 value) of a test compound is shown in [Table 1].

A short description of assay [1]: Cued fear conditioning (freezing) after ventricle administration of RFRP-1. Type of assay: in vivo, Wistar male rat. Particulars: rat, 3 nmol into a ventricle, on 2 day (48 hours after training); saline group 46.5% (Fig. 4). The procedure: (§1) A value indicates mean ± […] (mean ± SE) (n = 4). • Fig. 4 indicates a ratio of freezing in cued fear conditioning when RFRP-1 (-◆-) and a physiological saline (-○-) are administered in a ventricle. An ordinate axis indicates freezing (%) of one day and two day after administration, respectively, expressed by mean ± standard error.
Amnesia promoting activity of RFRP
Since an RFRP nerve is projected on amygdaloid complex, in order to study involvement of RFRP in amygdaloid complex-dependent memory•learning ability, influence under cued fear conditioning due to ventricle administration of RFRP-1 was studied. A mature Wistar male rat (weight 280 to 320 g at operation) was anesthetized with 50 mg/kg of pentobarbital by intraperitoneal administration, and a rat was fixed in a brain localization apparatus. A tooth cutting bar was set lower by 3.3 mm from an interoralline. A cranial bone was exposed, and a hole was opened in a bone using a dental drill in order to embed a guide cannulae AG-12 (internal diameter 0.4 mm, external diameter 0.5 mm, Eicom) in a ventricle. In addition, an anchor screw was embedded in four places at a periphery thereof. A stainless guide cannulae AG-12 was inserted so that its tip was positioned at an upper part of a side ventricle. […]

Assay [2] is described as follows: Blood glucose concentration after intravenous administration of RFRP-1 to rat under no anesthesia. Type of assay: in vivo, Wistar male rat. The settings on record: 10 nmol/kg, 5 minutes and 15 minutes after administration, compared with physiological saline group (Fig. 1). How it is done:
as §1
Blood glucose concentration increasing activity of RFRP
As RFRP, human RFRP-1 (37 amino acids) consisting of an amino acid sequence of 56th (Ser) to 92nd (Phe) of an amino acid sequence represented by SEQ ID No.: 3. Hereinafter, this peptide is abbreviated as RFRP-1.
In order to study influence of peripheral administration of RFRP-1 on a blood glucose concentration, operation for collecting blood under free moving was performed. A mature Wistar male rat (weight 310 to 350 g at operation) was anesthetized with 50 mg/kg of pentobarbital by intraperitoneal administration. The rat was fixed on an anatomic pad in a supine position, and a left jugular vein was exposed. […]
Overnight after operation, 300 µl of blood was collected using a tuberculin injection syringe having a dose of 1 ml and a 25 gauge injection needle (both Telmo) before administration of RFRP-1. […] A blood glucose concentration was measured using Fuji Drichem 3500 (FUJIFILM).

Assay [3] in a line: Blood glucagon and insulin concentration after intravenous administration of RFRP-1 to rat. Type of assay: in vivo, Wistar male rat. The settings on record: for blood glucagon concentration: intravenous, compared with physiological saline group (Fig. 2). How it is done:
as §1
Pancreatic glucagon secretion promoting activity of RFRP
In order to study mechanism of blood glucose concentration increasing activity of RFRP-1, influence of RFRP-1 on a blood concentration of glucagon and insulin which are known as a hormone imparting a variation to a blood glucose concentration was studied. A mature Wistar male rat (weight 310 to 350 g at operation) was operated for collecting blood under free moving. Overnight after operation, 300 µl of a blood was collected using a tuberculin injection syringe having a dose of 1 ml and a 25 gauge injection needle (both Telmo) before administration of RFRP-1. In order to prevent blood coagulation, 3 µl of a 300 KIU/ml aprotinin solution containing 3 mg/ml EDTA had been placed into an injection syringe in advance. An Otsuka physiological saline or RFRP-1 dissolved in a physiological saline (80 nmol/mL) was intravenously administered through a tube at 1 mL/Kg. After 1, 3, 5 and 15 minutes from initiation of intravenous administration, each 300 µL of blood was collected from a jugular vein. The collected blood was centrifuged (13,000 rpm, 5 minutes) using a minor amount high speed cooling centrifuge (MR-150, Tommy Seiko), and the supernatant (plasma) was recovered.

No end group written: not given here.

Broadly, the IC50 is the midpoint of a concentration-inhibition curve. Turning to “tert-Butyl 7-bromo-4-hydroxy-2-neopentyl-1-oxo-1,2-dihydroisoquinoline-3-carboxylate [Example 10]”, in the assay with human-type OT7T022, the IC50 was less than 1 µM.
In the case of “RFRP-1 (MPHSFANLPLRF; not fully specified; ends and bridges not checked; UniProt Q9HCQ7 81-92, looked up)”, the rate of freezing in assay [1] is on record as 35.5%. In addition, the blood glucose concentration result in assay [2] is reported as “significant (p<0.05, n = 4) activity of increasing a blood glucose concentration”. The blood insulin concentration result in assay [3] (intravenous (Fig. 3)) is “a variation due to administration of RFRP-1 was not recognized”. For the same substance, the blood glucagon concentration entry in assay [3] (5 minutes after administration) is on record as “significant (p<0.01) increase was continued”; in assay [3] (two minutes after administration), “significant (p<0.01) increase in a blood glucagon concentration”.

Source of the values: patent EP1604983A1, “RECEPTOR ANTAGONIST” (Takeda Pharmaceutical Company Limited, priority 2003, dated 2004).
